Results taken from patent US4360663A, “Steroid hormone-antitumor derivatives” (Kureha Kagaku Kogyo Kabushiki Kaisha, priority 1978, dated 1982).

How the values were obtained:
[1] = tested on: estrogen sensitive cells (uterus of rabbit); experiment: Binding function to estrogen sensitive cells (3H-estradiol replacement, uterus of rabbit); conditions: 100 nM sample; smaller value = higher binding; 54-56% at 0 nM
Method: Binding function of the active ingredients to estrogen sensitive cells.
The binding function of the active ingredient to tumor cells was tested by the method described in Biochemical Experiment text Hormone (I) (Nippon Seikagaku) (Tokyo Kagakudojin page 217-252, April 25, 1977).
Estradiol labelled by tritium (^3 H) was incubated with uterus of rabbit to bind it and then, the sample was added to the system to measure the amount of free ^3 H-estradiol which was replaced by the added estradiol. The results are shown as the binding ^3 H-estradiol(%) in the cases adding […] of the sample.

[2] = tested on: human breast cancer cells having steroid hormone receptor; experiment: Antitumor test (in vivo), human breast cancer cells implanted in BALB/C-nu/nu mice; conditions: tumors excised day 25
Method: Pieces of human breast cancer cells having steroid hormone receptor was subcutaneously implanted under the arm of mice (BALB/C-nu/nu) (5 week age) to form solid tumors. After the solid tumors were established, each dispersion or solution of the active ingredient in olive oil was administered by oral dose or intraperitoneal injection each other day for 10 times or every days for 20 times. Twenty five days from the initial administration, the tumors were excised. Efficiency of inhibition of tumor proliferation was measured from (A) each average weight of excised tumors for 10 mice (the active ingredient was administrated) and (B) each average weight of excised tumors for 10 control mice. [formula]
(§1) The tests (1), (2), (3) for various active ingredients were carried out.

[3] = tested on: estrogen sensitive cells (uterus of rabbit); experiment: Binding function to estrogen sensitive cells (3H-estradiol replacement, uterus of rabbit); conditions: 10 nM sample; smaller value = higher binding; 54-56% at 0 nM
[4] = Acute toxicity (LD50), ICR-JCL female mice, Litchfield-Wilcoxon graph method; conditions: mouse, in vivo, one dose, in olive oil, after 7 days
Method: In the measurement of LD50, eight ICR-JCL female mice (5 week age) were used as one group to breed in a transparent polycage, and each drug was dissolved in olive oil and administrated by routes of intraperitoneal injection (i.p.), oral administration (p.o.) and subcutaneous injection (s.c.), to the mice at one dose and then, their value of LD50 by Litchfield-Wilcoxon graph method is obtained after 7 days.
as §1

SMILES | Binding 3H-estradiol [1] | Inhibitory effect of tumor, efficiency ([2]; i.p., 5 mg/kg) | Inhibitory effect of tumor, efficiency ([2]; i.p., 10 mg/kg) | Inhibitory effect of tumor, efficiency ([2]; p.o., 10 mg/kg) | Inhibitory effect of tumor, efficiency ([2]; p.o., 40 mg/kg) | Binding 3H-estradiol [3] | LD50 at 168 h ([4]; ip) | LD50 at 168 h ([4]; po) | Inhibitory effect of tumor, efficiency ([2]; i.p., 20 mg/kg) | Inhibitory effect of tumor, efficiency ([2]; p.o., 50 mg/kg) | Inhibitory effect of tumor, efficiency ([2]; i.p., 1 mg/kg) | Inhibitory effect of tumor, efficiency ([2]; i.p., 3 mg/kg)
CN(N=O)C(=O)N[C@H]1C(O)O[C@H](C(=O)OCC(=O)O[C@H]2CC[C@H]3[C@@H]4CCc5cc(O)ccc5[C@H]4CC[C@]23C)[C@@H](O)[C@@H]1O (stereo partly drawn) [Test No. 6 (Table 17), 3-hydroxy-1,3,5(10)-estratriene-17β-[2-(N'-methyl-N'-nitrosoureido)-2-deoxy-D-glucuronoyloxy]acetate] | 16% | 92% | 97% | 77% | 84% | 28% | > 660 mg/kg | > 1000 mg/kg |  |  |  | 
C[C@]12CC[C@@H]3c4ccc(O)cc4CC[C@H]3[C@@H]1CC[C@@H]2OC(=O)Cn1cc(F)c(=O)[nH]c1=O [Test No. 7 (Table 17), 3-hydroxy-1,3,5(10)-estratriene-17β-[5-fluoro-2,4-dioxo-pyrimidin-1-yl]acetate] | 25% |  | 90% |  |  | 36% | > 605 mg/kg | > 2000 mg/kg | 100% |  |  | 
CN(Cc1cnc2nc(N)nc(N)c2n1)c1ccc(C(=O)N[C@@H](CCC(=O)OCC(=O)O[C@H]2CC[C@H]3[C@@H]4CCc5cc(O)ccc5[C@H]4CC[C@]23C)C(=O)OCC(=O)O[C@H]2CC[C@H]3[C@@H]4CCc5cc(O)ccc5[C@H]4CC[C@]23C)cc1 [Test No. 9 (Table 17), bis 3-hydroxy-1,3,5(10)-estratriene-17β-oxycarbonylmethyl-4-amino-N^10-methylpteroylglutamate] | 19% | 98% |  | 80% |  | 35% | > 235 mg/kg | > 3000 mg/kg |  | 93% |  | 
C[C@]12CC[C@@H]3c4ccc(O)cc4CC[C@H]3[C@@H]1CC[C@@H]2O [compound 1] | 16% |  |  |  |  | 36% |  |  |  |  |  | 
CO[C@H]1O[C@H](C(=O)OCC(=O)O[C@H]2CC[C@H]3[C@@H]4CCc5cc(O)ccc5[C@H]4CC[C@]23C)[C@@H](O)[C@H](O)[C@H]1NC(=O)N(CCCl)N=O [compound 2] | 30% |  |  | 79% | 82% | 45% | > 180 mg/kg | > 1000 mg/kg |  |  | 90% | 92%
CO[C@H]1O[C@H](CO)[C@@H](O)[C@H](O)[C@H]1NC(=O)N(CCCl)N=O [compound 3] | 55% |  |  |  |  | 55% |  |  |  |  |  | 
COc1cccc2c1C(=O)c1c(O)c3c(c(O)c1C2=O)C[C@@](O)(C(C)=O)C[C@@H]3O[C@H]1C[C@H](N)[C@H](O)[C@H](C)O1 [compound 4] | 56% |  |  |  |  | 56% |  |  |  |  |  | 
O=c1[nH]cc(F)c(=O)[nH]1 [compound 8] | 53% |  |  |  |  | 55% |  |  |  |  |  | 
